By AC50 is commonly meant the midpoint of the concentration-response curve, whichever way the signal moves. Higher therefore signals activity only at high concentration.

Test [1] concerns the target T1, W. bancrofti iPGM (Wuchereria bancrofti, UniProt B1P0R4).
T1 sequence (B1P0R4 1-515): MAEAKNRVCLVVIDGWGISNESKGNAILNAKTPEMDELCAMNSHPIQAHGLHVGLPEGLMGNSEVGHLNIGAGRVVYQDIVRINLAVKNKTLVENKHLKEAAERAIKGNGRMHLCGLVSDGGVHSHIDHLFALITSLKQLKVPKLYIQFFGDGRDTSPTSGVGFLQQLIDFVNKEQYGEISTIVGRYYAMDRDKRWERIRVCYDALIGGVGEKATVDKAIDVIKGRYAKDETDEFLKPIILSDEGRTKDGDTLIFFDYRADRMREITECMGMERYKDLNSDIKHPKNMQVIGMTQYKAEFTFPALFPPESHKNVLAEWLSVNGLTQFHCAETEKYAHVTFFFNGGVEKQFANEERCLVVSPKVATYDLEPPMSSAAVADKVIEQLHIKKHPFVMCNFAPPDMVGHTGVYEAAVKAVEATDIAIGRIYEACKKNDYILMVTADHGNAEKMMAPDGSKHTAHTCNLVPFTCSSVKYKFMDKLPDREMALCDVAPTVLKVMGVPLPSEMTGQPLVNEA
Put plainly: biochemical.

The target in test [2] is B. malayi iPGM (Brugia malayi, UniProt Q4VWF8). Put plainly: luminescent coupled-enzyme ATP-quantifying iPGM assay, B. malayi iPGM. Type of test: biochemical.
B. malayi iPGM, sequence (Q4VWF8 whole entry): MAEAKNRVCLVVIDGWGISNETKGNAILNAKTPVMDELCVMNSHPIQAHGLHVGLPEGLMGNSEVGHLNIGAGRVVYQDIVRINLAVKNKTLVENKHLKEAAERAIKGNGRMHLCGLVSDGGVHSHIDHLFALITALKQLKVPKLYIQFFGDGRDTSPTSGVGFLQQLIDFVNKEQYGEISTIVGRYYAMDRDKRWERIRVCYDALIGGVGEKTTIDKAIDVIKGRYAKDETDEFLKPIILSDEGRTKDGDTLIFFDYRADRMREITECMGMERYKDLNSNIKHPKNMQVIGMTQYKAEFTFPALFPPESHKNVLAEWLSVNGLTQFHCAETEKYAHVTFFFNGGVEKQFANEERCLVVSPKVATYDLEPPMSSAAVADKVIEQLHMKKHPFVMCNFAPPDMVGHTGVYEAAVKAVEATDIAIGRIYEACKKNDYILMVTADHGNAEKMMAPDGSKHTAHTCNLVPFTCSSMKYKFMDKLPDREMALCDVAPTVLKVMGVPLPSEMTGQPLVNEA
In test [3] the target is T2, C. elegans iPGM (Caenorhabditis elegans, UniProt G5EFZ1).
T2 sequence (G5EFZ1 1-539): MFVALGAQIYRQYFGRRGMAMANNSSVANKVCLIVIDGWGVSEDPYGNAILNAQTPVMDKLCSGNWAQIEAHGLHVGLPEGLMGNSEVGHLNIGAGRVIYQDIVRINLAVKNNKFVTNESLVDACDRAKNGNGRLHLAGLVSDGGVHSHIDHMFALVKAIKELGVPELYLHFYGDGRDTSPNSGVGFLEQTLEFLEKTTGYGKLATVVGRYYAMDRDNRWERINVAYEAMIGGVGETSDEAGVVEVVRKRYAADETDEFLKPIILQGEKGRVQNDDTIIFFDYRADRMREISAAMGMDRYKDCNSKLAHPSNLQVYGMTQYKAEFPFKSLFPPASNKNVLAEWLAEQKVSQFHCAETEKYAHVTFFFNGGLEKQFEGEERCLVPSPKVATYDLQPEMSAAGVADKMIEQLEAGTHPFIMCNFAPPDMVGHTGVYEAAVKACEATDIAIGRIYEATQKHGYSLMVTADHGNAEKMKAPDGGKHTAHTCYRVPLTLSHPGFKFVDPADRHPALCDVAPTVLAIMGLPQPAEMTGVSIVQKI
Put plainly: luminescent coupled-enzyme ATP-quantifying iPGM assay, C. elegans iPGM. It counts as biochemical.

Test [4] has as its target T3, H. pylori iPGM (Helicobacter pylori, UniProt B5Z7X6).
T3 sequence (B5Z7X6 1-491): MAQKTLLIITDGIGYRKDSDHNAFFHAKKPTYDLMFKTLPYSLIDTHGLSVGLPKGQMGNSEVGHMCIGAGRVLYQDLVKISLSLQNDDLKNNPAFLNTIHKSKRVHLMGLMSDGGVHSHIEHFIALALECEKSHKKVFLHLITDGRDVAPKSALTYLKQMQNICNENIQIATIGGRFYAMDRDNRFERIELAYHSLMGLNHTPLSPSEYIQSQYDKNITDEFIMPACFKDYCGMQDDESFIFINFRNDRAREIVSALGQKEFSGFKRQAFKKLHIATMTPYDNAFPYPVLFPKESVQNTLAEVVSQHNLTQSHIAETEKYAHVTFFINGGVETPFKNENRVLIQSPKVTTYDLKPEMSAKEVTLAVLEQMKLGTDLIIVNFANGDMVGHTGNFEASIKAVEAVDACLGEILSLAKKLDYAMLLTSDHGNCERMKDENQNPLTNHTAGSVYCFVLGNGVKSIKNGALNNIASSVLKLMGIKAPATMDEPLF
Briefly: biochemical.

Test [5] has as its target E. coli iPGM (Escherichia coli, UniProt P37689). Put plainly: luminescent coupled-enzyme ATP-quantifying iPGM assay, E. coli iPGM. It counts as biochemical.

E. coli iPGM, sequence (P37689 whole entry): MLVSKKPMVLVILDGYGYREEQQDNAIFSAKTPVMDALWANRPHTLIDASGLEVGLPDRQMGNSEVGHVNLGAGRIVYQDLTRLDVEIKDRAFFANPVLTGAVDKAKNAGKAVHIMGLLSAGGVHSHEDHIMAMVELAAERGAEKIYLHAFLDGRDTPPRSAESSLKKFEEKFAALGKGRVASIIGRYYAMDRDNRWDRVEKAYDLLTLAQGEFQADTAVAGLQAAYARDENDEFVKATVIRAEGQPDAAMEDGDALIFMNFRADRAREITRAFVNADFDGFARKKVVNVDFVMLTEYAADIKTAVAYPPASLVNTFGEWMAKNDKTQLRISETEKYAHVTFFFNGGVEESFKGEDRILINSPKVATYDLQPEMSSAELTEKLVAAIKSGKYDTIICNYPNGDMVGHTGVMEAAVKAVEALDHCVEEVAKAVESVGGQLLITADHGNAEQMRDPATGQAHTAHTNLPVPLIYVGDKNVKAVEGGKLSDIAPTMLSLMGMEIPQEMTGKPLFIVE

As for `CC(C)C[C@H](NC(=O)[C@H](Cc1ccc(O)cc1)NC(=O)[C@@H]1CSCC(=O)N[C@H](Cc2ccc(O)cc2)C(=O)N[C@@H](CC(=O)O)C(=O)N[C@@H](Cc2ccc(O)cc2)C(=O)N2CCC[C@H]2C(=O)NCC(=O)N[C@@H](CC(=O)O)C(=O)N[C@@H](Cc2ccc(O)cc2)C(=O)N1)C(=O)N[C@@H](Cc1ccc(O)cc1)C(=O)NCC(=O)N[C@H](C(=O)N[C@@H](CS)C(N)=O)[C@@H](C)O` [Ce-2], the AC50 in test [1] was 2.34 nM; in test [2] it was 2.69 nM; in test [3], 2.45 nM; in test [4], 3.63 µM; in test [5], 316 nM.

The record behind these values is paper PMC9900472 (ACS chemical biology, 2022).
